US11944623B2, “Modulators of Kv3 channels to treat pain” (Autifony Therapeutics Limited, priority 2015, dated 2024)

Key:
[1] = tested on: rat model of neuropathic pain; assay: Neuropathic pain model (partial ligation of the sciatic nerve): paw withdrawal to mechanical pressure and cold (10° C.), general observations; format: in vivo; conditions: for changes in contralateral paw withdrawals and latencies: just attained significance at 3 hours on mechanical
Procedure: (§1) The efficacy of Compounds 1, 2, 3 and 4 was investigated using rat models of neuropathic and/or persistent inflammatory pain.
(§2) Subjects comprised male, Wistar Hanover rats, 6 animals per group (225±2 g for Compound 1 studies and Compound 2 studies; 214±1 g for Compound 3 studies; 236±1 g for Compound 4 studies).
(§3) Vehicle (12% Captisol®; 0.5% w/v HPMC and 0.1% w/v Tween-80; 5 ml/kg via the intraperitoneal route) was prepared using autoclaved deionized water not more than one week prior to use.
(§4) The details of the studies performed are outlined in Table 1.
(§5) The control for the neuropathic pain model was lamotrigine, administered at 30 mg/kg via oral delivery. The control for the inflammatory pain model was diclofenac, administered at 30 mg/kg via oral delivery. Statistical analysis was performed using one-way ANOVA, and comparisons were performed with time-matched vehicle group using Tukey's HSD test wherein * p<0.05, ** p<0.01, *** p<0.001.
(§6) Treatment groups were randomised and blinded. Groups of 6 rats were used.
Neuropathic pain was induced by partial ligation of the sciatic nerve. Briefly, the rats were anaesthetised (isoflurane/O2 inhalation), the left sciatic nerve exposed at mid-thigh level through a small incision and ⅓ to ½ of the nerve thickness tightly ligated within a 7.0 silk suture. The wound was closed with surgical glue. Animals were allowed to recover and tested 12-15 days following surgery.
Withdrawal thresholds or latencies were measured on both the ipsilateral (ligated) and contralateral (non-ligated) paws, prior to (predose) and then up to 24 h following drug or vehicle administration.
Pre-dose behavioural measurements were obtained by measuring paw withdrawals 14 days following nerve ligation; before the initiation of drug treatment. Following treatment, further readings were taken at 1, 3, 6 and 24 hour after administration.
(§7) Mechanical hyperalgesia was examined in a model of neuropathic pain by measuring paw withdrawal thresholds (PWT) to increasing mechanical force applied to the dorsal surface of the rat paw using an Analgesymeter (Ugo-Basile, Milan) equipped with a wedge-shaped probe (area 1.75 mm^2). Cut-off was set at 250 g and the end-point was taken as withdrawal of the hind paw. Both ipsilateral and contralateral paw withdrawal readings were taken.
(§8) Cold sensitivity was assessed using a commercially available cold-plate (Ugo Basile, Milan). The cold plate was allowed to stabilize for 5 minutes at the set temperature prior to testing. Paw withdrawal latencies (PWL) were determined with the cold-plate set at 10° C. The animals were lightly restrained and each hind paw in turn placed onto the surface of the cold-plate. The end point was taken as the withdrawal of the paw and recorded as the withdrawal latency for the ipsilateral and the contralateral paw. A maximum cut-off of 30 seconds was used for each paw.
(§9) In addition to behavioural pain readings, each rat was observed throughout the study for changes in general behaviour.
(§10) Data were expressed as withdrawal threshold (g) or withdrawal latencies (s) and percentage reversals calculated according to the following formula: […]
(§11) Statistical analysis was carried out on withdrawal threshold readings using ANOVA with repeated measures followed by Tukey's HSD test. The level for statistical significance was set as p<0.05.

[2] = tested on: rat model of persistent inflammatory pain; assay: Persistent inflammatory pain model (intraplantar FCA): paw withdrawal to mechanical pressure and cold (10° C.), general observations; format: in vivo; conditions: for behavioural changes in the rats (general observations): rat, in vivo; for rats more alert and more vocal than fellow cage-mates: 1-6 h post-dose; for rats with noticeable flaccidity: 1-6h post-dose
Procedure: as §1, §2, §3, §4, §5, §6
Mechanical hyperalgesia was examined in a model of persistent inflammatory pain. The hyperalgesia was induced by an intraplantar injection (25 μl) of Freund's Complete Adjuvant (FCA) into the left hind paw.
To assess the effect of the test compound, paw withdrawal thresholds or latencies were measured on both the ipsilateral (FCA-injected) and contralateral (non-injected) paws, prior to (naïve) and 24 hours following FCA injection (predose), and then at 1, 3, 6 and 24 hours after drug or vehicle administration.
as §7, §8, §9, §10, §11

Human Nav1.7 channels = molecular target: T1, Human Nav1.7 channels (Homo sapiens, UniProt Q15858); assay: Nav1.7 QPatch assay; format: cell-based; conditions: 10 µM concentration (N=3)
T1 construct: expressed in transfected cells
T1 sequence (Q15858 whole entry): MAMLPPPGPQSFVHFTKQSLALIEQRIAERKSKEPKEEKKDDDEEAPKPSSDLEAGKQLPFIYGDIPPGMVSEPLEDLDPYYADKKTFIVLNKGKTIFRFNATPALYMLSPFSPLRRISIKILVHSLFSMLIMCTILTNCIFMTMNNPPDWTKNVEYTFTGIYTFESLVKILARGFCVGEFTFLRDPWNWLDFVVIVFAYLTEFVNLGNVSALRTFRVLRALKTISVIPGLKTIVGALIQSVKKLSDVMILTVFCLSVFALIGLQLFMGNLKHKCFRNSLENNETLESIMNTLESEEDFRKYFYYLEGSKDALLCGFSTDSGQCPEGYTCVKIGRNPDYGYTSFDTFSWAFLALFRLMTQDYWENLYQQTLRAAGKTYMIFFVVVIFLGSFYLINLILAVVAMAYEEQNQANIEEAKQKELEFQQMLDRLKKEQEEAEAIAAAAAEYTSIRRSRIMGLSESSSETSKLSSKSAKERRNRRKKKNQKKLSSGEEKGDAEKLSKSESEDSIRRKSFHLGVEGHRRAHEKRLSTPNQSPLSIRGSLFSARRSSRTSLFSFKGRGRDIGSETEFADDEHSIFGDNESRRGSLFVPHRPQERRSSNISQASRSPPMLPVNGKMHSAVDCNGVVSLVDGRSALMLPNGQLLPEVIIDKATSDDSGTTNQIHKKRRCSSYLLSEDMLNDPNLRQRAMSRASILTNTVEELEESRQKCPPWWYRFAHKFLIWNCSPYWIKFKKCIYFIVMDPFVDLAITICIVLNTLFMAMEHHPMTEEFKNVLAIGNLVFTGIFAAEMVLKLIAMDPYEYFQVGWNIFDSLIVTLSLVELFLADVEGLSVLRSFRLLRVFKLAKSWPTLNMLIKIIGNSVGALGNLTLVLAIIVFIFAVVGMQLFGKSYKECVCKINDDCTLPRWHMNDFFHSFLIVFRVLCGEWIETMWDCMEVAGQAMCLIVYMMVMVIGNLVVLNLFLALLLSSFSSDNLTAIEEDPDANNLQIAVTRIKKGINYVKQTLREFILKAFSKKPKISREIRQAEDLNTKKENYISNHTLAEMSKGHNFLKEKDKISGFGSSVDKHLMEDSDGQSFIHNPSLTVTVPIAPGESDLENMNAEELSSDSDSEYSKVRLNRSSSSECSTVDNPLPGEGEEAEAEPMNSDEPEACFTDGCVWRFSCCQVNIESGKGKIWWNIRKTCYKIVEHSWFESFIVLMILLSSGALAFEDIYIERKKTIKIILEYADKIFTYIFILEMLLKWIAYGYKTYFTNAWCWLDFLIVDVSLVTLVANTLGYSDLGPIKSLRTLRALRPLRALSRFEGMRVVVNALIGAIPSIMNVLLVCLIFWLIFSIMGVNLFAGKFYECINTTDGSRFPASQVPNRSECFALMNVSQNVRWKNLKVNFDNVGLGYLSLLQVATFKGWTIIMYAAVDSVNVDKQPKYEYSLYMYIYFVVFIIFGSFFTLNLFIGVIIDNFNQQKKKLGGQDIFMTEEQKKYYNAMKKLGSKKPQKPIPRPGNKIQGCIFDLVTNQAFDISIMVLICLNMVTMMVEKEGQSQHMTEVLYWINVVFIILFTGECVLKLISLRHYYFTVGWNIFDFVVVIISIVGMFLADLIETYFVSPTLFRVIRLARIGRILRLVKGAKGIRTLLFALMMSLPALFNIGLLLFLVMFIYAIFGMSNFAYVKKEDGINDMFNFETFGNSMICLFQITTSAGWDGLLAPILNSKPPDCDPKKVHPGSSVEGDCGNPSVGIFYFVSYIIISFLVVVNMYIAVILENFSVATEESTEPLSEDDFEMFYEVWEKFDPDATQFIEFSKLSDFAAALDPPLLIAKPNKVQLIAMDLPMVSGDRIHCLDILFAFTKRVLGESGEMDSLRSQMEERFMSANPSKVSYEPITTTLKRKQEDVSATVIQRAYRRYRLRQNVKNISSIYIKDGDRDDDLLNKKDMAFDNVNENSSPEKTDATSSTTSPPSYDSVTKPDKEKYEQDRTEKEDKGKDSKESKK
Procedure: Human Nav1.7 channels were stably expressed in a HEK293 cell line. Electrophysiological recordings were made at room temperature using an automated patch clamp platform (QPatch, Sophion Biosciences).
The QPatch assay was carried out at room temperature using the QPatch platform (Sophion). On the day of the experiment cells were cultured according to standard cell preparation for QPatch. Internal and external physiological solutions were freshly prepared prior to the assay. The standard extracellular solution contained 145 mM NaCl, 4 mM KCl, 2 mM CaCl2, 2 mM MgCl2, 10 mM HEPES and 10 mM glucose; the pH was adjusted to 7.4 with NaOH, and the osmolarity measured as 314mOsm/L. The standard intracellular solution contained 140 mM CsF, 10 mM NaCl, 5 mM CsOH, 1 mM EGTA, 10 mM HEPES; the pH was adjusted to 7.25 with CsOH, and the osmolarity measured as 293mOsm/L.
A series of 40 voltage pulses (from −120 mV to 0 mV, 2.4 ms long at 117 Hz) were applied every 60 s in control (twice), compound (five times), standard blocker (twice) and washout (twice). The % inhibition values were calculated by normalising the data relative to the 1st pulse (P1) and by calculating the ratio between the 40th pulse versus the 1st pulse (P40/1). Series resistance and quality of seals were monitored during the experiments. Sophion QPatch Assay Software 5.0 was used to analyse and plot all the graphs. 10 μM of the test compound was applied followed by 1 μM TTX (standard blocker), followed by saline (washout). Compounds were diluted in physiological solutions at the required concentration with a maximum of 0.1% of DMSO.

[3] = molecular target: T2, human BK (hKCa1.1/β1) potassium channel (Homo sapiens, UniProt Q12791); assay: BK QPatch HT assay; format: cell-based; conditions: 10 µM concentration (N=3)
T2 construct: expressed in transfected cells; host or cells: CHO cell line
T2 sequence (Q12791 whole entry): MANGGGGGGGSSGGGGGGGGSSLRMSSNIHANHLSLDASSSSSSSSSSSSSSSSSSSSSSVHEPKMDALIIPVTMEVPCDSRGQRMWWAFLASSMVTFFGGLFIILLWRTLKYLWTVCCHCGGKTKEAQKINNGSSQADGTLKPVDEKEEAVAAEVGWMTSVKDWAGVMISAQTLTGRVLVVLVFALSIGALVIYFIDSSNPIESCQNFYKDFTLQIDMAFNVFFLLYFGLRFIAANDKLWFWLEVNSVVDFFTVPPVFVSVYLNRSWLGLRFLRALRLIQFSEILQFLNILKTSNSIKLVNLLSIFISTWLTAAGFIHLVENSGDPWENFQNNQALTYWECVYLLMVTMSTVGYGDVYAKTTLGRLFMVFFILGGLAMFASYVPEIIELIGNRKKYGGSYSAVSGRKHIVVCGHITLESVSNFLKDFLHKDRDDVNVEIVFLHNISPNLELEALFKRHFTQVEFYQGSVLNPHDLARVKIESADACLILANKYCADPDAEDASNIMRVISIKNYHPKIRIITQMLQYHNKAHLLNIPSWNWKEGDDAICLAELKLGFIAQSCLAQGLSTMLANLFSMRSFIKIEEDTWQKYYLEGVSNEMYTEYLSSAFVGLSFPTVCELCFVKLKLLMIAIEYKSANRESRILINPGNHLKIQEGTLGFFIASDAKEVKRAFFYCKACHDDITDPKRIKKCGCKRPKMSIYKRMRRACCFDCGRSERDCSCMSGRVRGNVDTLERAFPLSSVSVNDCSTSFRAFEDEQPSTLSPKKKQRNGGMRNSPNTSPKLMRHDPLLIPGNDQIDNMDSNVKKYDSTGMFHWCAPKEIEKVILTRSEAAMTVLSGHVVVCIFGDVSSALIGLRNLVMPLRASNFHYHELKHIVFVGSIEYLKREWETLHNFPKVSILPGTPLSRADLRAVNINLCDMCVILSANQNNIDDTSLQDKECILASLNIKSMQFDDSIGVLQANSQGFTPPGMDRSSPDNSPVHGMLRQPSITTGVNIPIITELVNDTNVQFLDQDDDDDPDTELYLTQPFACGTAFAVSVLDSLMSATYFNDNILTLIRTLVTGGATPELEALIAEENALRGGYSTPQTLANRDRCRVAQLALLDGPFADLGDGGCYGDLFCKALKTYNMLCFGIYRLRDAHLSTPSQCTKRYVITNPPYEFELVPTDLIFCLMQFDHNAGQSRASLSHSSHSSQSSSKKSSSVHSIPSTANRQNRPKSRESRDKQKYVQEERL
T2 sequence (Q16558 whole entry partner): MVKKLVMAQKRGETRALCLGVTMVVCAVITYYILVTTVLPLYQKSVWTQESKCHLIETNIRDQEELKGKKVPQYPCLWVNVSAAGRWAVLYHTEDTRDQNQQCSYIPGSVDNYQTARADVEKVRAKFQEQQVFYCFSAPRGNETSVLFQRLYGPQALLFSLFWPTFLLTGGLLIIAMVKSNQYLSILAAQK
Procedure: The effects of compounds on cloned human BK (hKCa1.1/β1) potassium channel (encoded by the human KCNMA1 and KCNMB1 genes) were examined in a CHO cell line using a QPatch HT® (Sophion Bioscience A/S, Denmark) assay. Onset and steady-state inhibition of hBK currents were measured using a voltage pulse pattern with a depolarizing test pulse (+100 mV amplitude, 200 ms duration) at 10 s intervals from a holding potential of −80 mV. The peak amplitude of the delayed outward current was measured for each test pulse. The compounds were evaluated at 10 μM in three cells for each compound, after a 3 minute compound application. The steady state inhibition produced by each compound was calculated.

[4] = Study 1, 30 mg/kg i.p., 1 hour post-dose
[5] = Study 1, 60 mg/kg i.p., 1 hour post-dose
[6] = Study 1 of each compound, 30 mg/kg i.p., 3 hours post-dose
[7] = Study 2, 10 mg/kg i.p., 3 hours post-dose
[8] = Study 2, 30 mg/kg i.p., 3 hours post-dose
[9] = Study 2, 60 mg/kg i.p., 3 hours post-dose
[10] = 10 mg/kg i.p., 3 hours post-dose
[11] = 30 mg/kg i.p., 3 hours post-dose
[12] = 60 mg/kg i.p., 1 hour post-dose
[13] = 60 mg/kg i.p., 3 hours post-dose
[14] = 30 mg/kg i.p., time not stated (peak reversal at 1-3 h post-dose)
[15] = Study 1 of each compound (Table 1), 60 mg/kg i.p., 3 hours post-dose
[16] = Study 1 of each compound, 60 mg/kg i.p.

SMILES | behavioural changes in the rats (general observations) ([1]; Study 1 of each compound) | reversal of cold sensitivity [1, 6] [%] | reversal of cold sensitivity [1, 7] [%] | reversal of mechanical sensitivity [1, 7] [%] | reversal of cold sensitivity [1, 8] [%] | reversal of mechanical sensitivity [1, 8] [%] | reversal of cold sensitivity [1, 9] [%] | reversal of mechanical sensitivity [1, 9] [%] | changes in contralateral paw withdrawals and latencies ([1]; Study 2) | reversal of mechanical sensitivity [2, 10] [%] | reversal of cold sensitivity [2, 11] [%] | reversal of cold sensitivity [2, 12] [%] | reversal of cold sensitivity [2, 13] [%] | reversal of mechanical sensitivity [2, 13] [%] | changes in contralateral paw withdrawals/latencies ([2]; all doses) | behavioural changes in the rats (general observations) [2] | effect on Nav1.7-mediated currents (Human Nav1.7 channels) | effect on BK channel currents [3] | activity at 6 hours post-dose [2] | reversal of cold sensitivity [1, 15] [%] | also measured
CC[C@@]1(C)NC(=O)N(c2cnc(Oc3ccc(C)c(OC(F)(F)F)c3)nc2)C1=O [Compound 2, (5R)-5-ethyl-5-methyl-3-[2-({4-methyl-3-[(trifluoromethyl)oxy]phenyl}oxy)-5-pyrimidinyl]-2,4-imidazolidinedione] | no apparent behavioural changes | 55 | 35 | 31 | 70 | 72 | 95 | 81 | small changes | 46 | 58 | 96 | 81 | 67 | No changes | no apparent behavioural changes | No significant effect | No significant effect | – | – | reversal of cold sensitivity [1, 4]: 42%; reversal of mechanical sensitivity [1, 4]: 53%; reversal of cold sensitivity [1, 5]: 71%; reversal of mechanical sensitivity [1, 5]: 47%; duration of efficacy ([1]; Study 1, both doses (30 and 60 mg/kg i.p.)): efficacious at 3 hours by not by 6 hours post-dose; behavioural changes in the rats (general observations) ([1]; Study 2): no apparent behavioural changes
CC[C@H]1NC(=O)N(c2ccc(Oc3ccc(C)c4c3C3(CC3)CO4)nc2)C1=O [Compound 4, (5R)-5-ethyl-3-[6-(7-methylspiro[2H-benzofuran-3,1′-cyclopropane]-4-yl)oxy-3-pyridyl]imidazolidine-2,4-dione] | – | – | – | – | – | – | – | – | – | – | – | – | – | – | no significant changes | no behavioural changes noted | – | – | significant activity still evident | – | reversal of cold sensitivity [2, 14]: 55%; reversal of mechanical sensitivity [2, 14]: 50%
Cc1ccc(Oc2ccc(-n3c(C)n[nH]c3=O)cn2)c2c1OCC21CC1 [Compound 3, 5-methyl-4-{6-[(7-methylspiro[1-benzofuran-3,1′-cyclopropan]-4-yl)oxy]pyridin-3-yl}-2,4-dihydro-3H-1,2,4-triazol-3-one] | no behavioural changes noted | – | – | – | – | – | – | – | – | – | – | – | 51 | 67 | no significant changes | – | No significant effect | No significant effect | activity still evident | 52 | statistical significance against mechanical and cold hyperalgesia ([1]; Compound 3 neuropathic study, 60 mg/kg i.p.): attained statistical significance; changes in contralateral paw withdrawals/latencies ([1]; Compound 3 neuropathic study, 30 and 60 mg/kg i.p.): no significant changes; reversal of mechanical sensitivity [1, 15]: 46%; efficacy at 6 hours post-dose [1, 16]: activity was still evident; rats more alert and more vocal than fellow cage-mates ([2]; 30 mg/kg group): 4/6; rats more alert and more vocal than fellow cage-mates ([2]; 60 mg/kg group): 1/6; doses producing a reversal of mechanical or cold sensitivity ([2]; 10, 30 and 60 mg/kg i.p. tested): Only the top dose; reversal at 1 hour post-dose ([2]; 1 hour post-dose): little reversal evident
Cc1ccc(Oc2ncc(N3C(=O)NC(C)(C)C3=O)cn2)c2c1OCC21CC1 [Compound 1, 5,5-dimethyl-3-[2-(7-methylspiro[2H-benzofuran-3,1′-cyclopropane]-4-yl)oxypyrimidin-5-yl]imidazolidine-2,4-dione] | – | 52 | 39 | 31 | 68 | 73 | 76 | 81 | small changes | 64 | 65 | 92 | – | – | – | – | No significant effect | No significant effect | – | 125 | statistical activity of the lower dose ([1]; Study 1, 30 mg/kg i.p.): only statistically active against mechanical hyperalgesia; reversal of mechanical sensitivity ([1]; Study 1, 30 mg/kg i.p., 3 hours post-dose): 51%; flaccidity (general observation) ([1]; Study 1, 1 and 3 hour post-dose, both doses): slightly flaccid; reversal of mechanical sensitivity [1, 15]: 68%; efficacy at 6 hours post-dose [1, 16]: still efficacious; rats with mild flaccidity ([1]; Study 2, 30 mg/kg i.p.): 1/6; rats with mild flaccidity ([1]; Study 2, 60 mg/kg i.p.): 2/6; reversal of cold sensitivity [2, 10]: 45%; rats with noticeable flaccidity ([2]; 30 mg/kg i.p.): 2/6; reversal of mechanical sensitivity ([2]; 30 mg/kg i.p., 1 hour post-dose): 74%; animals showing the contralateral paw effect ([2]; 60 mg/kg i.p.): 3/6; changes in contralateral paw withdrawals/latencies ([2]; 60 mg/kg i.p.): Pronounced increases; rats with noticeable flaccidity ([2]; 60 mg/kg i.p.): 4/6; reversal of mechanical sensitivity [2, 12]: 92%; reversal of cold sensitivity ([2]; 60 mg/kg i.p., 6h post-dose): 45%; reversal of mechanical sensitivity ([2]; 60 mg/kg i.p., 6h post-dose): 45%
